Data on 3 compounds can be found in patent US20210338846A1, “COMPETITIVE PROSTATE-SPECIFIC MEMBRANE ANTIGEN (PSMA) BINDING AGENTS FOR REDUCTION OF NON-TARGET ORGAN UPTAKE OF RADIOLABELED PSMA INHIBITORS FOR PSMA POSITIVE TUMOR IMAGING AND RADIOPHARMACEUTICAL THERAPY” (The Johns Hopkins University, priority 2018, published 2021).

The subject of data set [1] is PSMA+ PC-3 PiP and PSMA− PC-3 flu tumors. Kind of data set: Biodistribution of [177Lu]VK-03-27 without and with co-injection of competing inhibitor VK-03-27. The note with it: VK-03-27 (no Lu complex) as the CI. The data set is classed as in vivo, mice.
Data set [2] shares this test system. Kind of data set: Biodistribution of [177Lu]VK-I-45 without and with co-injection of competing inhibitor [Lu]VK-I-45. Type of data set: in vivo, mice. The settings on record: for Biodistribution: Blood / Biodistribution: Flu tumor / Biodistribution: PiP tumor / Biodistribution: Salivary gland / Biodistribution: kidneys / Biodistribution: spleen / Biodistribution: stomach: 2 Hour. The source says: VK-01-45 and its Lu-177 complex was reported in international PCT patent application publication no. WO 2017/165473 A, to Ray et al., which is incorporated herein by reference in its entirety. […] This approach can be applied to all compounds in WO 2017/165473 A1, to Ray et al.

Setting [3] is: co-injection 0.1 nmole [Lu]VK-I-45.
Where [4] appears, read: co-injection 0.5 nmole [Lu]VK-I-45.
The mark [5] stands for this setting: co-injection 1.0 nmole [Lu]VK-I-45.
Where [6] appears, read: co-injection 5.0 nmole [Lu]VK-I-45.

On to `O=C(O)CC[C@H](NC(=O)N[C@@H](CCCCN(Cc1ccc(Br)cc1)C(=O)CCCCNC(=O)CCC(C(=O)O)N1CCN(CC(=O)O)CCN(CC(=O)O)CCN(CC(=O)O)CC1)C(=O)O)C(=O)O` (stereo partly shown) [VK-03-27], for which the “effect of competing inhibitor on uptake of [177Lu]VK-03-27” value in data set [1] is “reduces the uptake in kidneys, salivary glands and Lacrimal glands”.

As to `O=C([O-])CN1CCN(CC(=O)[O-])CCN(CC(=O)NCCCCC(=O)N(CCCC[C@H](NC(=O)N[C@@H](CCC(=O)O)C(=O)O)C(=O)O)Cc2ccc(Br)cc2)CCN(CC(=O)[O-])CC1.[Lu+3]` [[Lu]VK-01-45], the “effect of competing inhibitor on two-hour kidney uptake and retention of [177Lu]VK-01-45” value in data set [2] (self blocking, only a modest reduction in PSMA+PiP tumor uptake) was “can be reduced”.

Regarding `O=C([O-])CN1CCN(CC(=O)[O-])CCN(CC(=O)NCCCCC(=O)N(CCCC[C@H](NC(=O)N[C@@H](CCC(=O)O)C(=O)O)C(=O)O)Cc2ccc(Br)cc2)CCN(CC(=O)[O-])CC1.[177Lu+3]` [[^177Lu]VK-I-45], in data set [2] (No CI), the “Biodistribution: Blood” value turned out to be 0.1 ± 0.04 % injected dose/gram, the “Biodistribution: Flu tumor” value was determined as 0.3 ± 0.06 % injected dose/gram, the “Biodistribution: PiP tumor” value came out at 39 ± 14 % injected dose/gram and the “Biodistribution: Salivary gland” value amounted to 0.16 ± 0.07 % injected dose/gram. Also, in data set [2] (No CI), the “Biodistribution: kidneys” value is recorded as 35 ± 17 % injected dose/gram, the “Biodistribution: spleen” value was 0.7 ± 0.2 % injected dose/gram and the “Biodistribution: stomach” value is on record as 0.1 ± 0.04 % injected dose/gram. In addition, in data set [2] (setting [3]), the “Biodistribution: Blood” value is recorded as 0.12 ± 0.02 % injected dose/gram, the “Biodistribution: Flu tumor” value was 0.4 ± 0.07 % injected dose/gram, the “Biodistribution: PiP tumor” value is recorded as 38 ± 4 % injected dose/gram and the “Biodistribution: Salivary gland” value was 0.16 ± 0.03 % injected dose/gram. In data set [2] (setting [3]), the “Biodistribution: kidneys” value stood at 17 ± 11 % injected dose/gram, the “Biodistribution: spleen” value is 0.65 ± 0.1 % injected dose/gram and the “Biodistribution: stomach” value turned out to be 0.2 ± 0.08 % injected dose/gram. Further, in data set [2] (setting [4]), the “Biodistribution: Blood” value came to 0.11 ± 0.04 % injected dose/gram, the “Biodistribution: Flu tumor” value is reported as 0.35 ± 0.07 % injected dose/gram, the “Biodistribution: PiP tumor” value was determined as 35 ± 8 % injected dose/gram and the “Biodistribution: Salivary gland” value is reported as 0.12 ± 0.02 % injected dose/gram. Also, in data set [2] (setting [4]), the “Biodistribution: kidneys” value is reported as 4.8 ± 1.4 % injected dose/gram, the “Biodistribution: spleen” value is on record as 0.32 ± 0.07 % injected dose/gram and the “Biodistribution: stomach” value is on record as 0.09 ± 0.02 % injected dose/gram. Further, in data set [2] (setting [5]), the “Biodistribution: Blood” value is 0.07 ± 0.02 % injected dose/gram, the “Biodistribution: Flu tumor” value is 0.2 ± 0.03 % injected dose/gram, the “Biodistribution: PiP tumor” value amounted to 20 ± 1.5 % injected dose/gram and the “Biodistribution: Salivary gland” value is recorded as 0.07 ± 0.01 % injected dose/gram. Besides, in data set [2] (setting [5]), the “Biodistribution: kidneys” value stood at 1.75 ± 0.32 % injected dose/gram, the “Biodistribution: spleen” value was 0.15 ± 0.02 % injected dose/gram and the “Biodistribution: stomach” value was determined as 0.13 ± 0.08 % injected dose/gram. In addition, in data set [2] (setting [6]), the “Biodistribution: Blood” value is 0.8 ± 0.04 % injected dose/gram, the “Biodistribution: Flu tumor” value was 0.36 ± 0.14 % injected dose/gram, the “Biodistribution: PiP tumor” value is 17.3 ± 1.9 % injected dose/gram and the “Biodistribution: Salivary gland” value is 0.11 ± 0.04 % injected dose/gram. For the same compound, in data set [2] (setting [6]), the “Biodistribution: kidneys” value turned out to be 1.35 ± 0.44 % injected dose/gram, the “Biodistribution: spleen” value was determined as 0.14 ± 0.06 % injected dose/gram and the “Biodistribution: stomach” value came out at 0.2 ± 0.18 % injected dose/gram.
